Laboratory results reported in PubChem BioAssay AID449750 (Broad Institute, 2010).
Activity calls are given as the source filed them. No rule for the calls is given here.

Test: non-covalent RecA intein splicing inhibitors, dose response, biochemical, cell-free, fluorescence, secondary screen (AID 449750)

SMILES: CCS(=O)(=O)c1ncc(Cl)c(C(=O)Nc2ccc(S(=O)(=O)N(C)c3ccccc3)cc2)n1
- AC50: 1.66 µM

SMILES: Cc1nn(-c2ccccc2)c2c1C(c1ccc(F)cc1)C(C#N)=C(N)O2 (centres undefined)
- AC50: 28.4 µM

SMILES: O=[N+]([O-])C(/C=C(\Cl)[N+](=O)[O-])=C1N(Cc2ccc(Cl)nc2)CCN1Cc1ccc(Cl)nc1
- AC50: > 38 µM (inactive)

SMILES: CCc1[nH]nc2c1C(Cc1ccccc1)C(C#N)=C(N)O2 (centres undefined)
- AC50: > 38 µM (inactive)

SMILES: Cc1cc(C)c(S(C)(=O)=O)c(Oc2cccc(C(F)(F)F)c2)n1
- AC50: > 38 µM (inactive)

SMILES: CCCC(=O)N(C1CC(C)C(C#N)(C#N)C1(C#N)C#N)N(C)C (centres undefined)
- AC50: > 38 µM (inactive)

SMILES: Cc1nc2ccccc2c2c1C(=O)NC2=O
- AC50: > 38 µM (inactive)

SMILES: Nc1ccc2c(c1)C(=O)C(=O)c1ccccc1-2
- AC50: 17.6 µM

SMILES: CCCc1noc2c1C(c1ccoc1)C(C#N)=C(N)N2 (centres undefined)
- AC50: > 38 µM (inactive)

SMILES: O=C(Cc1ccccc1)NC1(O)C(=O)c2ccccc2C1=O
- AC50: 7.01 µM

SMILES: O=C(N/N=C/c1ccc([N+](=O)[O-])o1)c1ccc(O)cc1
- AC50: > 38 µM (inactive)

SMILES: COc1cccc(C(=O)O/N=C(\N)c2ccc([N+](=O)[O-])cc2)c1OC
- AC50: > 38 µM (inactive)

SMILES: CCc1ccc2c(c1)C(NC(C)=O)C(=O)N2CCN1CCOCC1 (centres undefined)
- AC50: 37 µM

SMILES: COc1cc(/C=N/NC(=O)c2ccc(F)cc2)ccc1OC(=O)c1ccco1
- AC50: > 38 µM (inactive)

SMILES: O=C(NC(NC(=S)Nc1ccc(Cl)cc1Cl)C(Cl)(Cl)Cl)c1cccc([N+](=O)[O-])c1 (centres undefined)
- AC50: 2.62 µM

SMILES: c1ccc(-c2nnc(-c3ccccn3)nc2NC2CCCCC2)cc1
- AC50: 7.98 µM

SMILES: Cn1nc(-c2ccccn2)nc2c(=O)n(C)c(=O)nc1-2
- AC50: 0.176 µM

SMILES: Cn1ccnc1Sc1cc(NCCCO)c([N+](=O)[O-])c2nonc12
- AC50: > 38 µM (inactive)

SMILES: O=C(CN1C(=O)S/C(=C\C=C\c2ccccc2)C1=O)Nc1ccc(C(=O)O)cc1
- AC50: 29.6 µM

SMILES: Cc1ccc(CNC(=O)c2ccc(N(C)S(=O)(=O)c3ccccc3)cc2)cc1
- AC50: > 38 µM (inactive)

SMILES: CCC(=O)Oc1ccc(C(=O)Nc2cccc(C(=O)c3ccccc3)c2)cc1
- AC50: 32.8 µM

SMILES: O=C(N/N=C/c1ccc(-c2ccccc2[N+](=O)[O-])o1)[C@H]1C[C@@H]1c1ccccc1
- AC50: 9.01 µM

SMILES: O=C(/C=C/c1ccc(O)cc1)c1ccc(NC2=C(N3CCCCC3)C(=O)c3ccccc3C2=O)cc1
- AC50: 2.06 µM

SMILES: CCOC(=O)c1c(NC(=O)/C=C/C(=O)O)sc(C)c1-c1ccc(C)c(C)c1
- AC50: 10.7 µM

SMILES: CC(C)S(=O)(=O)C1=NSC2=NC(=O)/C(=C\c3ccc(OC(=O)c4ccco4)cc3)C(=N)N21
- AC50: 30.6 µM

SMILES: CN(C)/C=C/C(=O)c1ccc2noc(-c3ccc(F)cc3)c2c1
- AC50: > 38 µM (inactive)

SMILES: COC(=O)c1sc(-c2ccc(Cl)cc2)cc1NC(=O)/C=C/C(=O)O
- AC50: 9.69 µM

SMILES: O=c1cc(-c2cccc([N+](=O)[O-])c2)[nH][nH]1
- AC50: 9.77 µM

SMILES: COC(=O)c1[nH]c(=O)c2ccccc2c1O
- AC50: 12.1 µM

SMILES: CC(C)c1nnc(NC(=O)CCS(=O)(=O)c2nc(-c3cccs3)cc(C(F)(F)F)n2)s1
- AC50: > 38 µM (inactive)

SMILES: C/C(CC(=O)Nc1cc(C)ccn1)=N\NC(=O)c1ccncc1
- AC50: 37.4 µM

SMILES: Cc1ccc(NC(=O)COc2cccc(/C=C3\SC(=S)N(CCC(=O)O)C3=O)c2)cc1Cl
- AC50: 10.2 µM

SMILES: CC1=NN(c2ccccc2)C(=O)/C1=C/c1cccs1
- AC50: 9.94 µM

SMILES: COc1cc(C2(c3ccc(O)c(OC)c3)C(=O)Nc3c(Br)cc(Br)cc32)ccc1O
- AC50: 21.5 µM

SMILES: CCN(CC)CCN1C(=O)C(O)=C(C(C)=O)C1c1ccccc1[N+](=O)[O-] (centres undefined)
- AC50: 37.7 µM

SMILES: O=C1NC(c2ccc(-c3ccccc3[N+](=O)[O-])o2)C(C(=O)c2ccc(Cl)cc2)C(O)(C(F)(F)F)N1 (centres undefined)
- AC50: 17 µM

SMILES: COc1ccccc1/C=C/C1(C(=O)NC2CCCC2)CC(=O)N1c1ccc(C)cc1 (centres undefined)
- AC50: 13.3 µM

SMILES: CCCCCCCCCC[N+](C)(C)CC/C=C1/c2ccccc2Sc2ccc(Cl)cc21
- AC50: 5.09 µM

SMILES: O=C(CS(=O)c1ccc(C(F)(F)F)cc1[N+](=O)[O-])Oc1ccccc1 (centres undefined)
- AC50: > 38 µM (inactive)

SMILES: CSc1nc(-c2ccccc2)nn1C(=O)c1ccc(Cl)cc1
- AC50: > 38 µM (inactive)

SMILES: Cc1ccc(C)c(Sc2ccc(NC(=O)CCl)cc2)c1
- AC50: 1.27 µM

SMILES: O=C1c2ccccc2-c2c1nc1c([n+]2[O-])CCCC1
- AC50: 31.3 µM

SMILES: Cc1ccc(NC(=O)CCl)cc1S(=O)(=O)N1CCCCCC1
- AC50: 10 µM

SMILES: Cn1nc([N+](=O)[O-])c(C(C#N)c2ccccn2)c(Cl)c1=O (centres undefined)
- AC50: > 38 µM (inactive)

SMILES: O=C(O)c1ccc(NC2=C(Cl)C(=O)c3ccccc3C2=O)cc1
- AC50: 3.91 µM

SMILES: O=c1[nH]c2ccc(Cl)cc2c(-c2ccccc2)c1SC(=S)N1CCCCC1
- AC50: > 38 µM (inactive)

SMILES: N#Cc1cc([N+](=O)[O-])ccc1NC(=O)COC(=O)CCC1CCCCC1
- AC50: 15.1 µM

SMILES: CC1(C)Nc2ccc(O)cc2-c2c1ssc2=S
- AC50: > 38 µM (inactive)

SMILES: Cc1cccc(CS(=O)(=O)c2ncc(Cl)c(C(=O)Nc3c(C)cccc3C)n2)c1
- AC50: > 38 µM (inactive)

SMILES: N#C/C(=C/c1ccncc1)c1nc2ccccc2s1
- AC50: > 38 µM (inactive)

SMILES: CCOc1cc(C(c2c(C)[nH][nH]c2=O)c2c(C)[nH][nH]c2=O)ccc1O
- AC50: 5.54 µM

SMILES: O=C1C=C(N(CCO)Cc2ccccc2)c2ccccc2C1=O
- AC50: 4.49 µM

SMILES: N=c1c2c(-c3ccccc3)c(-c3ccccc3)n(Cc3ccco3)c2ncn1Cc1ccccc1
- AC50: 5.8 µM

SMILES: Cc1nn(-c2ccccc2)c2c1C1(C(=O)N3c4c(cccc41)C(C)CC3(C)C)C(C#N)=C(N)O2 (centres undefined)
- AC50: 23.9 µM

SMILES: CCOC(=O)C1CCN(S(=O)(=O)c2c(Cl)ccc3nonc23)CC1
- AC50: 11.6 µM

SMILES: O=[N+]([O-])c1cncc([N+](=O)[O-])c1Nc1cccc(O)c1
- AC50: > 38 µM (inactive)

SMILES: C#CC(=O)N(c1cc(OC)ccc1OC)C(C(=O)NC1CCCC1)c1cccs1 (centres undefined)
- AC50: 2.35 µM

SMILES: CC(=O)N(C1=C(Cl)C(=O)c2ccccc2C1=O)C1CCCCC1
- AC50: 2.79 µM

SMILES: CS/C(=C\[N+](=O)[O-])Nc1ccc(Cl)cc1
- AC50: > 38 µM (inactive)

SMILES: COc1ccc(C(=O)c2c(C(F)(F)F)oc3c2C(=O)c2ccccc2C3=O)cc1OC
- AC50: > 38 µM (inactive)

SMILES: CC(NC(=O)COC(=O)c1cc(NS(=O)(=O)c2ccc(Cl)c([N+](=O)[O-])c2)ccc1O)C1CC2CCC1C2 (centres undefined)
- AC50: 1.67 µM

SMILES: CS/C(=C/[N+](=O)[O-])Nc1cccc2c1C(C)CC2(C)C (centres undefined)
- AC50: > 38 µM (inactive)

SMILES: O=C(CCl)c1cc2c3c(c1)CC(=O)N3CCC2
- AC50: > 38 µM (inactive)

SMILES: [O-]C1=N/[N+](=C/c2ccc(Cl)cc2)CC1
- AC50: > 38 µM (inactive)

SMILES: Cc1ccc(S(=O)(=O)c2c(N)n(CCC(C)C)c3nc4ccccc4nc23)cc1
- AC50: 5.3 µM

SMILES: COc1ccc(OC)c(C2C(C#N)=C(N)Oc3c2c(C)nn3-c2ccc(C)cc2)c1 (centres undefined)
- AC50: 31.1 µM

SMILES: COc1cccc(/C=C/C(=O)c2ccc(NS(=O)(=O)c3ccc(C)cc3)cc2)c1
- AC50: 6.79 µM

SMILES: Cc1ccc(N2C(=O)C(Cl)=C(N3CCOCC3)C2=O)c(C)c1
- AC50: > 38 µM (inactive)

SMILES: Cc1nnc(NC(=O)c2nc(S(=O)(=O)Cc3ccccc3)ncc2Cl)s1
- AC50: 26.5 µM

SMILES: O=C1CS/C(=C\[N+](=O)[O-])N1c1ccc(OC(F)(F)F)cc1
- AC50: > 38 µM (inactive)

SMILES: Oc1ccc(N=Cc2sc3ccccc3c2Cl)cc1
- AC50: > 38 µM (inactive)

SMILES: COC(=O)C(C#N)C(c1cccnc1)c1c(C)[nH][nH]c1=O (centres undefined)
- AC50: > 38 µM (inactive)

SMILES: Cc1noc(C)c1CSCC(=O)Oc1ccc(N(C)S(=O)(=O)c2ccccc2)cc1
- AC50: > 38 µM (inactive)

SMILES: O=C(NCc1cccnc1)/C(=C\c1ccc(-c2cccc(Cl)c2)o1)S(=O)(=O)c1ccccc1
- AC50: 26.9 µM

SMILES: CCCNC1=C(N(C(C)=O)c2cccc(F)c2)C(=O)c2ccccc2C1=O
- AC50: 3.72 µM

SMILES: COC(CN(C(=O)CCl)C(C(=O)NC1CCCC(C)C1C)c1ccc(C)cc1)OC (centres undefined)
- AC50: 10.9 µM

SMILES: CC1=NNC(=O)/C1=C\c1cn(-c2ccccc2)nc1-c1ccccc1
- AC50: 8.49 µM

SMILES: Cc1cccc(S(=O)(=O)C(C#N)c2nc3ccccc3nc2N2CCCC2)c1 (centres undefined)
- AC50: > 38 µM (inactive)

SMILES: O=C1C=Cc2ccccc2C1=O
- AC50: 14.9 µM

SMILES: Cc1ccc(CNC(=O)CCN2C(=O)[C@@H]3Cc4ccccc4CN3C2=O)cc1
- AC50: > 38 µM (inactive)

SMILES: CC1=NN(c2ccc(C)cc2C)C(=O)C1C(c1ccccc1)C1C(=O)N(c2ccc(C)cc2C)N=C1C (centres undefined)
- AC50: 3.04 µM

SMILES: CCCCCCCCCCOC(=O)Cn1c(COc2ccc(C)cc2)[n+](C)c2ccccc21
- AC50: 8.88 µM

SMILES: Cc1[nH]n(-c2ccccc2)c(=O)c1/C=C1/C=c2ccccc2=N1
- AC50: > 38 µM (inactive)

SMILES: O=C1C=C(Nc2ccccc2C(=O)O)c2ccccc2C1=O
- AC50: 6.57 µM

SMILES: C/C(CC(=O)Nc1cc(C)ccn1)=N\NC(=O)C(=O)NC(C)C
- AC50: > 38 µM (inactive)

SMILES: CCOC(=O)c1c(C)oc2c1c(C=NCCC(=O)O)c(O)c1ccccc12
- AC50: 22.1 µM

SMILES: CC(=O)N1C(=O)C2(C(C#N)=C(N)Oc3c2c(C)nn3-c2ccccc2)c2ccccc21 (centres undefined)
- AC50: 28 µM

SMILES: Cc1[nH]n(C(N)=S)c(=O)c1C(c1ccccc1)C(C#N)C#N (centres undefined)
- AC50: > 38 µM (inactive)

SMILES: Cc1ccccc1N1C(=O)C(Cl)=C(N2CCOCC2)C1=O
- AC50: > 38 µM (inactive)

SMILES: COc1ccc(C(C(=O)NC2CCCCC2)N(C(=O)CCl)c2cccc(Cl)c2)cc1 (centres undefined)
- AC50: 0.577 µM

SMILES: CCCc1nnc(NC(=O)c2nc(S(=O)(=O)Cc3ccc(C)cc3)ncc2Cl)s1
- AC50: 1.55 µM

SMILES: CC1CCc2c(c3ccccc3n2C(=O)CCl)C1 (centres undefined)
- AC50: 6.54 µM

SMILES: Clc1ccc(-c2nnc(Sc3nc4ccccc4o3)c3ccccc23)cc1
- AC50: 7.15 µM

SMILES: COC(=O)CN1C(c2ccc(Cl)cc2)=Nc2ccc(Cl)cc2C1c1ccccc1 (centres undefined)
- AC50: 5.48 µM

SMILES: O=c1c2ccccc2nc(/C=C/c2cccnc2)n1CCc1ccccc1
- AC50: 15.9 µM

SMILES: COc1cc(/C=C2/C(=O)N(c3ccc(Br)cc3)N=C2C)cc(OC)c1OC
- AC50: 7.07 µM

SMILES: O=C1c2ccccc2C(=O)c2c1ncn2-c1ccccc1
- AC50: > 38 µM (inactive)

SMILES: CC(C)c1ccc(S(=O)(=O)/N=C2\C=C(NS(=O)(=O)c3ccccc3)C(=O)c3ccccc32)cc1
- AC50: 6.05 µM

SMILES: Cc1ccc(C2C(C#N)=C(N)Oc3n[nH]c(-c4ccccc4)c32)o1 (centres undefined)
- AC50: > 38 µM (inactive)

SMILES: O=C1CC(c2cccnc2)=NN1c1ccccc1
- AC50: > 38 µM (inactive)

SMILES: Cc1cccc(N(Cc2cc(=O)[nH]c3ccccc23)C(=O)CCl)c1
- AC50: 6.83 µM

SMILES: CCOC(=O)c1ccc(-n2[nH]c(-c3ccccc3)cc2=O)cc1
- AC50: 5.45 µM

SMILES: CCOC(=O)c1sc(N(Cc2ccccc2)C(=O)CCl)nc1C
- AC50: 5.79 µM

SMILES: CCOC(=O)C1=C(c2ccccc2)O/C(=C(/C#N)C(F)(F)F)S1
- AC50: > 38 µM (inactive)
